This note sets out measurements from patent US20100331310A1, “BICYCLOAMINE DERIVATIVES” (priority 2008, published 2010).

Structures are written as SMILES. pIC50: −log10 of the molar value. Structures can show the parent of a compound that is named as a salt.

T1 sequence (Q9Y5Y9 whole entry): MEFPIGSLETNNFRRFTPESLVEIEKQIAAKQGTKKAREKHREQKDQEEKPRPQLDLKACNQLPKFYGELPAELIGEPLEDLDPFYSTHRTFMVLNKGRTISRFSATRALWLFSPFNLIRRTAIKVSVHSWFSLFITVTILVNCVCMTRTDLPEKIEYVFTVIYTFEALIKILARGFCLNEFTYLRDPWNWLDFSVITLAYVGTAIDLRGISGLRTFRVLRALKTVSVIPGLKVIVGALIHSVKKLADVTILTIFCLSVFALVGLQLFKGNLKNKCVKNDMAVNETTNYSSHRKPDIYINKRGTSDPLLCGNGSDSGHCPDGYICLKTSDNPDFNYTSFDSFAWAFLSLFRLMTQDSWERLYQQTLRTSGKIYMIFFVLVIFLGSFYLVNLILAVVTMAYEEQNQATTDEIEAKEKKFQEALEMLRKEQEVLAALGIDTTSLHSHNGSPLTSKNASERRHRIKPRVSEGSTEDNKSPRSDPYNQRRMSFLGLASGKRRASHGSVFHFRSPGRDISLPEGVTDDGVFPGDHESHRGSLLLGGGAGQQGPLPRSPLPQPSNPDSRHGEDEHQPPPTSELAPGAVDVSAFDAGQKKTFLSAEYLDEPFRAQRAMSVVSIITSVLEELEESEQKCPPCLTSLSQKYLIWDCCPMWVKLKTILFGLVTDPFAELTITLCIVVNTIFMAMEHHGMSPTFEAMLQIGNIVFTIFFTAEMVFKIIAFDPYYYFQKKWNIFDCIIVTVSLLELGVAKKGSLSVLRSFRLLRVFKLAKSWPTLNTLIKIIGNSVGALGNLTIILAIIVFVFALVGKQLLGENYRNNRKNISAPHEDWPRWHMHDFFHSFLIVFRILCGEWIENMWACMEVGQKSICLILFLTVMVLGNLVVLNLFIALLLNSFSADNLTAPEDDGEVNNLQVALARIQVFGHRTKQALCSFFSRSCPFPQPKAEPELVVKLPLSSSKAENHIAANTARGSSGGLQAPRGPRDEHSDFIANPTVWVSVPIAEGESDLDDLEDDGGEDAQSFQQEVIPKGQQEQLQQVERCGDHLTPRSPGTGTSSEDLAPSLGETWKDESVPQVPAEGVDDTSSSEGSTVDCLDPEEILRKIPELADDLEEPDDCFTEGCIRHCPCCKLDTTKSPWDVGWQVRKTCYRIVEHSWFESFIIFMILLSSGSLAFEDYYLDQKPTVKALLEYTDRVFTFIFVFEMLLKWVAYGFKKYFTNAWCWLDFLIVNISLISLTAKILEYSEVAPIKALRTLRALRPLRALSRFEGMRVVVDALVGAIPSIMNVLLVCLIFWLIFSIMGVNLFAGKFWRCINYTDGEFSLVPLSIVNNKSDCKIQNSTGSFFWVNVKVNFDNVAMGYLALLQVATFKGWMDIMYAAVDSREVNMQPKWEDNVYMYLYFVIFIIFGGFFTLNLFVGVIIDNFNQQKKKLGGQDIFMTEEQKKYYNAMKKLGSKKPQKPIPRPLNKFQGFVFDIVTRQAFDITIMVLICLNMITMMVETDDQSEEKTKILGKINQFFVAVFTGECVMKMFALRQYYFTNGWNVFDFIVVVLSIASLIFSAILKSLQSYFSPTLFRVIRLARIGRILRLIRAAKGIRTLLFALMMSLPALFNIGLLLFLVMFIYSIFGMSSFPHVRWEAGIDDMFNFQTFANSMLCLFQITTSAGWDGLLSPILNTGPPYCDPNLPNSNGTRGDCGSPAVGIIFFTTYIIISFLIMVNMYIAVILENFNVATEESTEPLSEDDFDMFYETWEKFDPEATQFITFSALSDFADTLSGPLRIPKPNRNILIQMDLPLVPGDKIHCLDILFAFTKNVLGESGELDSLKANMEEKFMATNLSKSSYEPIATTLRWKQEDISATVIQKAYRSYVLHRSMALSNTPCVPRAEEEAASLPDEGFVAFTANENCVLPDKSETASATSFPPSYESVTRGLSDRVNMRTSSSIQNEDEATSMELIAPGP

One assay addresses T1, human Nav1.8 (Homo sapiens, UniProt Q9Y5Y9).
T1 construct: expressed in transfected cells
In words: Membrane potential increase-inhibitory action on TTX-resistant Na channels in cells expressing human Nav1.8 gene (deltamethrin stimulation). In kind it is cell-based.
Conditions: not given
Here is the method: A cell line expressing human Nav1.8 gene was used to evaluate the pharmacological effects of compounds of the invention.
1. A membrane potential-sensitive dye containing TTX (final concentration: 0.25 μM) was added to cells expressing human Nav1.8, prior to incubation at 37° C. for 30-60 minutes. 2. The test compound was added to the cells, and the mixture was stationed for 15-30 minutes at room temperature while shielded from light. 3. Deltamethrin (final concentration: 50 μM), a Nav1.8 channel stimulant, was added, and the change in fluorescence intensity due to increased membrane potential was measured.
The Nav1.8 channel inhibition of the test compound was determined by the following equation.
The pIC50 is the IC50 on a negative log10 scale, so that one unit is a factor of ten. A higher pIC50 goes with a small IC50. `Cc1nn(C[C@H](F)CN2C3CCC2CC(OCc2cccs2)C3)c(=O)n1C` (stereo partly drawn) [Example 7, (Endo)-2-{(R)-2-fluoro-3-[3-(thiophen-2-ylmethoxy)-8-azabicyclo[3.2.1]oct-8-yl]propyl}-4,5-dimethyl-2,4-dihydro[1,2,4]triazol-3-one] gave a negative logarithm of the IC50 (pIC50) of 5.37.

`Cc1nc(=O)n(C[C@@H](F)CN2[C@@H]3CC[C@H]2C[C@@H](OCc2cccc(F)c2)C3)c(=O)n1C` [Example 13, (Endo)-3-{(S)-2-fluoro-3-[3-(3-fluorobenzyloxy)-8-azabicyclo[3.2.1]oct-8-yl]propyl}-1,6-dimethyl-1H-[1,3,5]triazine-2,4-dione oxalate] gave a negative-log IC50 (pIC50) of 5.00.

Take `Cc1nc(=O)n(C[C@H](F)CN2[C@@H]3CC[C@H]2C[C@@H](OCc2cccc(F)c2)C3)c(=O)n1C` [Example 15, (Endo)-3-{(R)-2-fluoro-3-[3-(3-fluorobenzyloxy)-8-azabicyclo[3.2.1]oct-8-yl]propyl}-1,6-dimethyl-1H-[1,3,5]triazine-2,4-dione oxalate]: the pIC50 was 5.62.

`Cc1cccc(COC2CC3CCC(C2)N3CC(F)Cn2c(=O)nc(C)n(C)c2=O)c1` (stereo not drawn) [Example 21, (Endo)-3-{2-fluoro-3-[3-(3-methylbenzyloxy)-8-azabicyclo[3.2.1]oct-8-yl]-propyl}-1,6-dimethyl-1H-[1,3,5]triazine-2,4-dione oxalate]: the pIC50 is 5.40.

`Cc1nn(C[C@H](F)CN2[C@@H]3CC[C@H]2C[C@@H](OCc2cccc(F)c2)C3)c(=O)n1-c1ccn(C)n1` [Example 23, (Endo)-2-{(R)-2-fluoro-3-[3-(3-fluorobenzyloxy)-8-azabicyclo[3.2.1]oct-8-yl]propyl}-5-methyl-4-(1-methyl-1H-pyrazol-3-yl)-2,4-dihydro[1,2,4]triazol-3-one oxalate] had a pIC50 of 5.28.

On to `Cc1nn(C[C@@H](F)CN2[C@@H]3CC[C@H]2C[C@@H](OCc2ccc(F)cc2)C3)c(=O)n1-c1ccn(C)n1` [Example 24, (Endo)-2-{(S)-2-fluoro-3-[3-(4-fluorobenzyloxy)-8-azabicyclo[3.2.1]oct-8-yl]propyl}-5-methyl-4-(1-methyl-1H-pyrazol-3-yl)-2,4-dihydro[1,2,4]triazol-3-one oxalate], for which the pIC50 is 5.43.

Turning to `CCc1ccccc1COC1CC2CCC(C1)N2C[C@H](O)Cn1nc(C)n(CC)c1=O` (stereo partly drawn) [Example 31, (Endo)-4-ethyl-2-{(S)-3-[3-(2-ethylbenzyloxy)-8-azabicyclo[3.2.1]oct-8-yl]-2-hydroxypropyl}-5-methyl-2,4-dihydro[1,2,4]triazol-3-one], the negative logarithm of the IC50 (pIC50) is 6.00.

Turning to `Cc1nn(C[C@H](O)CN2[C@@H]3CC[C@H]2C[C@@H](OCc2ccc(F)cc2)C3)c(=O)n1-c1cnn(C)c1` [Example 34, (Endo)-2-{(R)-3-[3-(4-fluorobenzyloxy)-8-azabicyclo[3.2.1]oct-8-yl]-2-hydroxypropyl}-5-methyl-4-(1-methyl-1H-pyrazol-4-yl)-2,4-dihydro[1,2,4]triazol-3-one], the pIC50 was 4.80.

Compound `CCn1cnn(C[C@@H](O)CN2[C@@H]3CC[C@H]2C[C@@H](OCc2c(C)cccc2F)C3)c1=O` [Example 35, (Endo)-4-ethyl-2-{(S)-3-[3-(2-fluoro-6-methylbenzyloxy)-8-azabicyclo[3.2.1]oct-8-yl]-2-hydroxypropyl}-2,4-dihydro[1,2,4]triazol-3-one] gave a pIC50 of 4.85.

`Cc1nn(CC(O)CN2[C@@H]3CC[C@H]2C[C@@H](OCc2ccccc2F)C3)c(=O)n1-c1nccs1` (stereo partly drawn) [Example 48, (Endo)-2-{3-[3-(2-fluorobenzyloxy)-8-azabicyclo[3.2.1]oct-8-yl]-2-hydroxypropyl}-5-methyl-4-thiazol-2-yl-2,4-dihydro[1,2,4]triazol-3-one oxalate] showed a pIC50 of 6.70.

Consider `Cn1c(-c2cocn2)nn(CC(O)CN2[C@@H]3CC[C@H]2C[C@@H](OCc2ccccc2CF)C3)c1=O` (stereo partly drawn) [Example 55, (Endo)-2-{3-[3-(2-fluoromethylbenzyloxy)-8-azabicyclo[3.2.1]oct-8-yl]-2-hydroxy-propyl}-4-methyl-5-oxazol-4-yl-2,4-dihydro[1,2,4]triazol-3-one], for which the pIC50 was 4.92.

Turning to `Cn1c(-c2ccccc2)nn(CCCN2[C@@H]3CC[C@H]2C[C@@H](OCc2ccccc2F)C3)c1=O` [Example 57, (Endo)-2-{3-[3-(2-fluorobenzyloxy)-8-azabicyclo[3.2.1]oct-8-yl]propyl}-4-methyl-5-phenyl-2,4-dihydro[1,2,4]triazol-3-one oxalate], the pIC50 was 7.10.

In the case of `CCn1c(C)nc(=O)n(CCCN2[C@@H]3CC[C@H]2C[C@@H](OCc2c(F)cccc2-c2ccccc2)C3)c1=O` [Example 91, (Endo)-1-ethyl-3-{3-[3-(3-fluorobiphenyl-2-ylmethoxy)-8-azabicyclo[3.2.1]oct-8-yl]propyl}-6-methyl-1H-[1,3,5]triazine-2,4-dione oxalate], the pIC50 is 6.77.

In turn, `Cc1nn2c(=O)n(C[C@H](F)CN3[C@@H]4CC[C@H]3C[C@@H](OCc3cccc(F)c3)C4)c(=O)nc2n1C` [Example 101, (Endo)-6-{(R)-2-fluoro-3-[3-(3-fluorobenzyloxy)-8-azabicyclo[3.2.1]oct-8-yl]propyl}-2,3-dimethyl-3H-[1,2,4]triazole[1,5-a][1,3,5]triazine-5,7-dione] showed a pIC50 of 5.57.

`Cc1nn2c(=O)n(C[C@H](F)CN3[C@@H]4CC[C@H]3C[C@@H](OCc3ccc(F)c(F)c3)C4)c(=O)nc2n1C` [Example 102, (Endo)-6-{(R)-3-[3-(3,4-di-fluorobenzyloxy)-8-azabicyclo[3.2.1]oct-8-yl]-2-fluoropropyl}-2,3-dimethyl-3H-[1,2,4]triazole[1,5-a][1,3,5]triazine-5,7-dione] had a pIC50 of 5.55.

Take `O=c1nc2n(c(=O)n1C[C@H](F)CN1[C@@H]3CC[C@H]1C[C@@H](OCc1ccc(F)cc1)C3)CCC2` [Example 128, (Endo)-3-{(R)-2-fluoro-3-[3-(4-fluorobenzyloxy)-8-azabicyclo[3.2.1]oct-8-yl]propyl}-7,8-dihydro-6H-pyrrolo[1,2-a][1,3,5]triazine-2,4-dione oxalate]: the pIC50 is 5.43.

Compound `Cc1cccc(F)c1CO[C@H]1C[C@H]2CC[C@@H](C1)N2CCCn1c(=O)nc2n(c1=O)CCCCC2` [Example 136, (Endo)-3-{3-[3-(2-fluoro-6-methylbenzyloxy)-8-azabicyclo[3.2.1]oct-8-yl]propyl}-7,8,9,10-tetrahydro-6H-[1,3,5]triazino[1,2-a]azepine-2,4-dione oxalate] showed a pIC50 of 5.31.

`Cc1ccccc1OC[C@@H]1C[C@H]2CC[C@@H](C1)N2CCCCn1nc2ccccn2c1=O` [Example 153, (Exo)-2-{4-[3-(2-methylphenoxymethyl)-8-azabicyclo[3.2.1]oct-8-yl]butyl}-2H-[1,2,4]triazolo[4,3-a]pyridin-3-one oxalate] had a pIC50 of 5.43.

`O=c1n(CC[C@H](O)CN2[C@@H]3CC[C@H]2C[C@@H](OCc2ccccc2F)C3)nc2ccccn12` [Example 155, (Endo)-2-{(S)-4-[3-(2-fluorobenzyloxy)-8-azabicyclo[3.2.1]oct-8-yl]-3-hydroxybutyl}-2H-[1,2,4]triazolo[4,3-a]pyridin-3-one] had a pIC50 of 5.89.

Take `O=C(CN1[C@@H]2CC[C@H]1C[C@@H](OCc1ccccc1F)C2)Cn1nc2ccccn2c1=O` [Example 158, (Endo)-2-{3-[3-(2-fluorobenzyloxy)-8-azabicyclo[3.2.1]oct-8-yl]-2-oxopropyl}-2H-[1,2,4]triazolo[4,3-a]pyridin-3-one]: the pIC50 is 6.03.

`CCn1c(CCCN2[C@@H]3CC[C@H]2C[C@@H](OCc2ccccc2F)C3)nn(C)c1=O` [Example 169, (Endo)-4-ethyl-5-{3-[3-(2-fluorobenzyloxy)-8-azabicyclo[3.2.1]oct-8-yl]propyl}-2-methyl-2,4-dihydro[1,2,4]triazol-3-one] had a pIC50 of 4.92.

Turning to `Cc1nc2c(c(=O)n1CCN1[C@@H]3CC[C@H]1C[C@@H](OCc1ccccc1F)C3)CCCC2` [Example 180, (Endo)-3-{2-[3-(2-fluorobenzyloxy)-8-azabicyclo[3.2.1]oct-8-yl]ethyl}-2-methyl-5,6,7,8-tetrahydro-3H-quinazolin-4-one oxalate], the pIC50 is 5.32.

In the case of `Cn1c(=O)c2c(ncn2CCCN2[C@@H]3CC[C@H]2C[C@@H](OCc2ccccc2F)C3)n(C)c1=O` [Example 182, (Endo)-7-{3-[3-(2-fluorobenzyloxy)-8-azabicyclo[3.2.1]oct-8-yl]propyl}-1,3-dimethyl-3,7-dihydro-purine-2,6-dione], the pIC50 was 5.17.

Regarding `Cc1c(C)n(C)c(=O)n(CCCN2[C@@H]3CC[C@H]2C[C@@H](OCc2ccccc2F)C3)c1=O` [Example 189, (Endo)-3-{3-[3-(2-fluorobenzyloxy)-8-azabicyclo[3.2.1]oct-8-yl]propyl}-1,5,6-trimethyl-1H-pyrimidine-2,4-dione oxalate], the pIC50 was 5.42.

In turn, `O=c1n(CC(O)CN2[C@@H]3CC[C@H]2C[C@@H](OCc2ccccc2F)C3)nnn1-c1ccccc1` (stereo partly drawn) [Example 190, (Endo)-1-{3-[3-(2-fluorobenzyloxy)-8-azabicyclo[3.2.1]oct-8-yl]-2-hydroxypropyl}-4-phenyl-1,4-dihydro-tetrazol-5-one] showed a pIC50 of 7.52.

The assay is the same for the next values; noted with them: 30 μM; reference for complete inhibition in the equation.
On to `CNCCCN1c2ccccc2CCc2ccccc21` [desipramine, reference compound], for which the Nav1.8 channel inhibition result is reported as “completely inhibits”.
